Numbers after ± are expanded uncertainties.

One may read the viscosity as the internal friction of a fluid under shear.

The data set in a line: an = ratio of the nth substance listed. The note with it: 298.15 K; 101 kPa; Liquid; Cone and plate viscometry; a1 = 1.

Regarding `CCCCCCCCCCCCCC[P+](CCCCCC)(CCCCCC)CCCCCC.O=S(=O)([N-]S(=O)(=O)C(F)(F)F)C(F)(F)F` + NCCO, the viscosity is listed as 90 ± 2 mPa·s.

The record behind these values is the NIST ThermoML archive (doi:10.1021/acs.jced.5b00710).
